Laboratory results: patent US11191850B2, “Molecular probes for detection and imaging of pancreatic cancer” (Portland State University, priority 2016, dated 2021)
“Also recorded” adds a separate entry of the source. Where two headings read alike, the source gives them in different places.

Experiments:
Capan-1 cells [1] = experiment: Cell viability by CellTiter-Blue assay; type: cell-based, human; conditions: Capan-1, 24 h incubation, read-out: IC50 (cytotoxicity, cell viability)
Protocol: (§1) Cell culture. The human PDAC cell line Capan-1 was obtained from Dr. Rosalie Sears' laboratory and maintained in RPMI medium (Gibco) in a humid atmosphere at 37° C. with 5% CO2. All media were supplemented with 10% (v/v) fetal bovine serum (FBS), and 1% (v/v) penicillin/streptomycin. The cell viability was determined by Cell Titer-Blue® assay (Promega Corporation). Monolayers of 10^4 Capan-1 cells were seeded in triplicate in 96 well plates and incubated with decreasing concentration from 100 μM of each compound in growth media containing 10% FBS. After 24 h incubation time, 20 μL of CellTiter-Blue® reagent was added into each well, and culture cells were incubated for additional 2 h. Fluorescence intensity in each well was recorded at 560/590 nm in a SpectraMax® M5 Microplate Reader (Molecular Devices, LLC). The half maximal inhibitory concentration (IC50) of these three compounds were determined from interpolating values in the graph (% cell viability vs. fluorophore concentration). For comparison of cellular uptake rate in Capan-1 cells, absorbance of media was measured as background, and absorbance of supernatant was obtained to determine the cellular uptake by using absorbance of 10 μM fluorophore in cell free media as standard reference.
In vitro cell viability was assessed for compounds 2, 12 and 13 in a representative PDAC cell line, Capan-1. […]

[2] = UV-Vis absorption and fluorescence spectroscopy; type: physicochemical; design: Brightness: unit not given here; conditions: for pH and solvent sensitivity of UV and fluorescence spectra: 10-15 μM, aqueous 10% DMSO with HCl, NaOH or pH 7.4 buffer, various solvents; for Quantum yield / λmax em / Brightness / Stokes shift: pH 7.4 buffer; for Extinction coefficient / λmax abs: pH 7.4 phosphate buffer, 10% DMSO
Text: UV-Vis absorption and fluorescence spectroscopy. UV-Vis spectra were collected with a Cary 50 UV-Vis spectrophotometer at room temperature, using a 1-cm quartz cuvette. Fluorescence spectra were collected on a Cary Eclipse fluorescence spectrophotometer (Agilent Technologies). All absorbance spectra were reference corrected. Fluorescence spectra were corrected for the wavelength dependent response of the R928 photomultiplier tube using a manufacturer generated correction file. Quantum yields are reported as the average of multiple measurements using multiple references. Excitation emission matrices (EEMs) were collected over various spectral regions, using 5-nm step sizes for emission and 10-nm step sizes for excitation. The band pass for excitation and emission was 5 to 10 nm.
Probes 1-13 were screened for pH and solvent sensitivity. Solvent sensitivity or dependence is at least partially attributable to differences in the equilibria between tautomeric forms of the compounds in the various solvents evaluated. The fluorophore concentrations ranged from 10-15 μM. Aqueous solutions contained 10% DMSO and 12.5 mM HCl, 12.5 mM NaOH, or pH 7.4 phosphate buffer.

healthy CD-1 mice [3] = experiment: In vivo biodistribution imaging after systemic administration; conditions: for clearance route and rate: 100 nmol i.v. (MB 120 nmol); for organ accumulation (in vivo biodistribution): 100 nmol i.v., 4 h distribution phase; for pancreas penetration / specificity: normal pancreas, systemic administration
Protocol: (§2) Animals. Approval for the use of all animals in this study was obtained from the Institutional Animal Care and Use Committee (IACUC) at Oregon Health and Science University (OHSU). Male CD-1 mice weighing 22-24 g were purchased from Charles River Laboratories (Wilmington, MA). […] All animals were placed on 5V75 chlorophyll free diet from TestDiet (St. Louis, Mo.) 1 week prior to any imaging studies. Prior to surgery, mice were anaesthetized with 100 mg/kg ketamine and 10 mg/kg xylazine (Patterson Veterinary, Devens, Mass.). The peritoneal cavity was surgically exposed by removal of overlaying skin and muscle tissue to image fluorophore biodistribution following intravenous injection.
(§3) Intraoperative fluorescence imaging system. In vivo murine biodistribution images and macroscopic images of resected tissues were acquired using a custom-built small animal imaging system capable of real time color and fluorescence imaging. The imaging system consists of a QImaging EXi Blue monochrome camera (Surrey, British Columbia, Calif.) for fluorescence detection with a removable Bayer filter for collecting co-registered color and fluorescence images. A PhotoFluor II light source (89 North, Burlington, Vt.) was focused onto the surgical field through a liquid light guide and used unfiltered for white light illumination. […] All filters were obtained from Chroma technology (Bellows Falls, Vt.). Camera exposure times ranged from 50 to 200 ms for fluorescence image collection.
(§4) Systemic administration of fluorescent compounds. […] Fluorophores were diluted in PBS. For comparison with previous studies, 120 nmol Methylene Blue was injected systemically. Mice were administered blank PBS for control images (n=3 mice per group, 5 groups).
(§5) In vivo biodistribution imaging. […] The peritoneal cavity was exposed and images were collected so that the bladder, adipose tissue, intestine, kidney, liver, muscle, pancreas, spleen, and stomach were visible within the field of view. For initial biodistribution studies images were collected immediately after injection and at 5, 15, 30, 60, 120, and 240 min following injection. […] Vehicle injected control animals were imaged on the same time course as fluorophore injected animals for initial testing or immediately following injection only for studies involving MB or PDAC tumor bearing mice to assess tissue autofluorescence for comparison to injected animals.
(§6) Fluorophore biodistribution kinetics were measured using region of interest analysis on images collected of the peritoneal cavity. Mean fluorescence intensities in each organ or tissue type were measured from images collected at each time point. All intensities were normalized to the muscle intensity at that time point by dividing by the measured muscle intensity. Using the normalized fluorescence intensities for each organ or tissue type, mean intensities were calculated for each group.
(§7) Upon completion of initial biodistribution studies, animals were euthanized and their organs were resected.

PDAC tumor tissue = experiment: Intraoperative fluorescence imaging and ex vivo microscopy in PDAC tumor bearing mice; design: species or system mouse; conditions: 100 nmol systemic, n=5 PDAC mice, monitored over 1.5 h
Protocol: Systemic administration of fluorescent compounds. […] Fluorophores were diluted in PBS.
In vivo biodistribution imaging.
Ex vivo fluorescence microscopy, pathology, and immunofluorescence staining. Resected pancreas tissue from compound 12 in vivo biodistribution studies with PDAC tumor bearing mice was fixed with 2% PFA for 12 h, flash frozen in optimal cutting temperature (OCT) compound with liquid nitrogen, and stored at −80° C. Cryosections were cut at 10 μm onto Superfrost Plus slides (Fisherbrand, Fisher Scientific). Slides were mounted with Fluoromount-G (Southern Biotech, Birmingham, Ala.) and coverslipped. […] Images were acquired on an Axio Observer inverted fluorescence microscope (Zeiss, Thornwood, N.Y.) at 10, 20, or 40× magnification. […] Color images were collected using an Axiocam 105 camera (Zeiss) and fluorescence images were collected using an Axiocam 506 camera (Zeiss) where a 605±35 nm or 525±25 nm bandpass emission filter was used for compound 12 or Atto 488 fluorescence image collection, respectively.
Compound 12 was systemically administered to n=5 genetically modified PDAC mice. Pancreas specific fluorescence was monitored over 1.5 h. […] FIGS. 12B and 12C show real-time intraoperative fluorescence imaging of compound 12 in the PDAC mice. […]

pancreas tissue = experiment: Ex vivo staining of pancreas tissue from healthy and PDAC mice; design: species or system mouse
Text: Thus 12 enabled ex vivo staining to distinguish the features of healthy and PDAC tissue.

Capan-1 cells [4] = experiment: Subcellular localization by live cell imaging with organelle trackers; type: cell-based, human; conditions: Capan-1, 0.5 μM, 1 h incubation
Protocol: In vitro live cell imaging. Monolayers of 10^4 Capan-1 cells were seeded in triplicate in 8 well plates and incubated for 24 h in growth media containing 10% FBS and allowed to attach. For subcellular colocalization experiments, media was extracted and cells were washed with PBS, and phenol red-free growth medium was added to each well. Organelle trackers were added to each well, and incubated with the compound (final concentration 0.5 μM) of interest for 1 h. Cells were then washed with PBS and then fixed with 2% paraformaldehyde (PFA). Fluorescence microscopy was carried out using a Zeiss inverted microscope with an Axioscan fluorescence camera for imaging. Final concentration of organelle trackers used in this experiments, DAPI (4,6-diamidino-2-phenylindole) 0.5 μM, MitoTracker® Green (benzoxazolium 2-[3-[5,6-dichloro-1,3-bis[[4-(chloromethyl)-phenyl]methyl]-1,3-dihydro-2H-benzimidazol-2-ylidene]-1-propenyl]-3-methyl-chloride 201860-17-5v, ThermoFisher Scientific) 0.5 μM, and ER-Tracker™ Green (BODIPY® FL dye and glibenclamide; ThermoFisher Scientific) 1 μM.
The subcellular localization of 2, 12 and 13 was investigated in Capan-1 cells after 1 h incubation time. […] FIGS. 6A, 7A, and 8A show the red fluorescence of the three compounds, respectively, as well as blue fluorescence with DAPI (4,6-diamidino-2-phenylindole) FIGS. 6C, 7C, 8C) and green fluorescence with organelle-specific fluorescent probes—ER-Tracker™ Green (BODIPY® FL dye and glibenclamide; ThermoFisher Scientific) (FIGS. 6E, 7E, 8E) and MitoTracker® Green (benzoxazolium 2-[3-[5,6-dichloro-1,3-bis[[4-(chloromethyl)-phenyl]methyl]-1,3-dihydro-2H-benzimidazol-2-ylidene]-1-propenyl]-3-methyl-chloride201860-17-5v; ThermoFisher Scientific) (FIGS. 6G, 7G, 8G). Also shown are composite overlays of (i) phase contrast+compound fluorescence (FIGS. 6B, 7B, 8B), (ii) DAPI+compound fluorescence (FIGS. 6D, 7D, 8D), (iii) DAPI+ER-Tracker™ Green+compound fluorescence (FIGS. 6F, 7F, 8F), and (iv) DAPI+MitoTracker® Green+compound fluorescence (FIGS. 6H, 7H, 8H).

Capan-1 cells [5] = experiment: In vitro time-dependent fluorophore uptake; type: cell-based, human; conditions: Capan-1, 10 μM
Protocol: as §1
In vitro time-dependent fluorophore uptake was also investigated in Capan-1 cells. […]

healthy CD-1 mice [6] = conditions: mouse, in vivo, iv
Protocol: as §2, §3, §4, §5, §6, §7

Row | Structure (SMILES) | IC50 (Capan-1 cells [1]) | pH and solvent sensitivity of UV and fluorescence spectra [2] | Extinction coefficient ([2]; methyl ether derivatives) | clearance route and rate (healthy CD-1 mice [3]) | organ accumulation (in vivo biodistribution) (healthy CD-1 mice [3]) | pancreas penetration / specificity (healthy CD-1 mice [3]) | site of intracellular localization (Capan-1 cells [4]) | fluorophore uptake within 30 min of application (ranking) (Capan-1 cells [5]) | further results
1 | COC(=O)c1ccccc1C1=c2cc3c4c(c2Oc2c1ccc1cccc(OC)c21)CCC[N+]=4CCC3 [Compound 12, 15-methoxy-9-(2-(methoxycarbonyl)phenyl)-1,2,3,5,6,7-hexahydrobenzo[7,8]chromeno[2,3-f]pyrido[3,2,1-ij]quinolin-4-ium chloride] | 17.8 µM | insensitive to variations in pH or solvent | 17764 M⁻¹ cm⁻¹ | both renal and hepatic clearance; also recorded: cleared more slowly than compound 2; also recorded: greater hepatic excretion rate | accumulated in the kidney, pancreas, and intestine | improved pancreas specificity | extensive accumulation in the mitochondria |  | Quantum yield ([2]; excited at 480 nm): 11.38%; λmax em ([2]; excited at 480 nm): 622 nm; Brightness ([2]; methyl ether derivatives): 2022; Stokes shift ([2]; methyl ether derivatives): 40 nm; λmax abs ([2]; methyl ether derivatives): 582 nm; fluorescence SBR in the pancreas compared to surrounding organs (healthy CD-1 mice [3]; 4-h time point): highest and most persistent fluorescence SBR in the pancreas; uptake in normal pancreas tissue relative to MB (healthy CD-1 mice [3]; 12 100 nmol vs MB 120 nmol, i.v.): 4 fold; accumulation in PDAC tumor tissue vs surrounding tissue (PDAC tumor tissue): significantly higher than in the surrounding healthy tissue; also recorded: significantly higher than in the surrounding tissues and specific for the malignant cells; ex vivo staining localization, cancerous (PDAC) tissue (pancreas tissue; PDAC mouse pancreas): localized in the PDAC-associated ductal epithelial cells; ex vivo staining localization, healthy mouse pancreas tissue (pancreas tissue; healthy mouse pancreas): uptake of 12 in its abundant acinar cell population
2 | COC(=O)c1ccccc1C1=c2cc3c4c(c2Oc2c1ccc1cccc(N)c21)CCC[N+]=4CCC3 [Compound 13, 15-amino-9-(2-(methoxycarbonyl)phenyl)-1,2,3,5,6,7-hexahydrobenzo[7,8]chromeno[2,3-f]pyrido[3,2,1-ij]quinolin-4-ium chloride] | 26.1 µM | not pH dependent, but were modestly solvent sensitive |  | cleared more slowly than compound 2 | accumulated largely in the kidneys | diminished pancreas accumulation | extensive accumulation in the mitochondria | greatest fluorophore uptake | Quantum yield ([2]; excited at 630 nm): 0.66%; λmax em ([2]; excited at 630 nm): 740 nm; Brightness ([2]; seminaphthorhodamines): 85; Stokes shift ([2]; seminaphthorhodamines): 139 nm; Extinction coefficient ([2]; seminaphthorhodamines): 12808 M⁻¹ cm⁻¹; λmax abs ([2]; seminaphthorhodamines): 601 nm
3 | CN(C)c1ccc2nc3ccc(=[N+](C)C)cc-3sc2c1 [MB, methylene blue, reference compound] |  |  |  |  |  | poor penetration into normal pancreas tissue; also recorded: diminished pancreas accumulation |  |  | clearance route and rate (healthy CD-1 mice [6]): preferentially and rapidly cleared through the renal system
4 | COC(=O)c1ccccc1-c1c2ccc(=O)cc-2oc2c1ccc1cccc(OC)c12 [Compound 2] |  | not affected by either solvent changes or by solution pH values above 2 | 15,610 M^−1 · cm^−1 | significant renal clearance; also recorded: faster renal clearance than compounds 12 and 13 | preferentially accumulated in the pancreas, intestine and bladder | improved pancreas specificity | within vesicular structures | the lowest | 
